Reference: US12472247B2, “Immune adjuvant comprising hepatitis B virus-derived polypeptide” (priority 2020, dated 2025)
Entries after “also recorded” stand apart in the source; their conditions may differ.

Legend:
[1] = test system: dendritic cells differentiated from mouse bone marrow cells; assay: maturation markers of dendritic cells by FACS; format: cell-based; conditions: Poly6 0.1, 0.5, 1 μM, 24 hours
Experimental: (§1) The femur and tibia of C57BL/6 mice were isolated, and bone marrow cells therein were isolated. The isolated bone marrow cells were cultured in IMDM medium (supplemented with IL-4 and GM-CSF) to induce differentiation of dendritic cells. After culturing for 6 days, dendritic cells having 80% or more of CD11c markers were used in the experiment (FIG. 3).
Dendritic cells differentiated from mouse bone marrow cells were treated with Poly6 peptides at each concentration of 0.1 μM, 0.5 μM, and 1 μM and cultured for 24 hours, and then expression of representative maturation markers CD80, CD86, and MHC I, and a migration marker CCR7 of dendritic cells were confirmed by fluorescence activated cell sorting (FACS).

[2] = test system: dendritic cells differentiated from mouse bone marrow cells; assay: inflammatory cytokines secreted by dendritic cells (ELISA); format: cell-based; conditions: Poly6 0.1, 0.5, 1 μM, 24 hours
Experimental: as §1
When dendritic cells were treated with Poly6 peptides at concentrations of 0.1 μM, 0.5 μM, and 1 μM for 24 hours, inflammatory cytokines TNF-α, IL-6, and IL-12p40 secreted by dendritic cells were confirmed by ELISA.

[3] = test system: HBV; assay: anti-HBV effect in HBV-carrier mouse models (hydrodynamic injection); format: in vivo, hepatitis B virus
[4] = test system: peripheral blood mononuclear cells (PBMC); assay: IFN-γ-expressing T cells in PBMC treated with Poly6; format: cell-based; conditions: human PBMC, IL-2 three days, Poly6 at various concentrations
[5] = test system: HIV-1
[6] = test system: dendritic cells; assay: migration of Poly6-treated dendritic cells to lymph nodes after footpad injection; format: in vivo, mouse; conditions: for ability of activated dendritic cells to migrate to the lymph nodes: 0.1 μM of Poly6, 0.1 μg/ml of LPS, vs DCs without any treatment
Experimental: Dendritic cells activated by treatment with Poly6 peptides for 24 hours were fluorescently labeled (CFSE) and injected into C57BL/6 mice by footpad injection, and after 3 days, the inguinal lymph nodes of the mice were extracted to confirm numbers of labeled dendritic cells.

GRLVFQ (poly6 peptide)
expression level of the maturation markers of dendritic cells (CD80, CD86, MHC I, CCR7) [1]: increased as the concentration of treated Poly6 increased
amounts of TNF-α, IL-6, and IL-12p40 secreted by dendritic cells [2]: amounts of TNF-α, IL-6, and IL-12p40 secreted by dendritic cells increased
anti-HBV effects [3]: anti-HBV effects in HBV-carrier mouse models were also observed
IFN-γ-expressing T cells [4]: significantly increased IFN-γ-expressing T cells compared to a group treated with PBS; also recorded: concentration-dependent trend was also observed
anti-HIV-1 effects [5]: showed anti-HIV-1 effects
ability of activated dendritic cells to migrate to the lymph nodes [6]: have an ability to migrate to the lymph nodes on their own
numbers of dendritic cells found in the lymph nodes ([6]; DCs treated with 0.1 μM Poly6, footpad injection, 3 days, vs untreated DCs): increased statistically significantly

lipopolysaccharide [LPS, reference compound]
ability of activated dendritic cells to migrate to the lymph nodes [6]: have an ability to migrate to the lymph nodes on their own
